Measured values published in patent US20110293524A1, “METHODS AND COMPOSITIONS FOR THE REGULATION OF LECTIN COMPLEMENT PATHWAY (LCP)-ASSOCIATED COMPLEMENT ACTIVATION IN HYPERGLYCEMIC MYOCARDIAL DAMAGE” (The Brigham and Women"s Hosptial Inc., priority 2008, published 2011).

Experiments:
Type in all cases: in vivo
[1] = system: diabetic WT mice; experiment: Serum troponin I concentration after MI/R (ELISA); conditions: insulin-treated diabetic animals vs non-treated diabetic WT mice; 15 min ischemia, 4 h reperfusion
Experimental: (§1) All animals used in MI/R experiments were male mice aged 8-12 wk old. C57BL/6 [wildtype (WT)] mice were obtained from Charles River Laboratories (Wilmington, Mass.). MBL null animals 21, back-crossed 8-10 generations onto the C57BL/6 background, were used as previously described^2,22. All procedures were reviewed and conducted in accordance with the Institute's Animal Care and Use Committee (IACUC). Experiments were performed according to the standards and principles set forth in the National Institutes of Health (Guide for the Care and Use of Laboratory Animals-DHHS publication no. (NIH) 85-23, revised 1985). Mice were made diabetic by a single injection of freshly prepared streptozotocin (STZ) solution (200 mg/kg body weight in citrate saline, pH 4.2, i.p., ALEXIS, Lausen, Switzerland)^23. The mice were housed in cages of four mice each and had unlimited access to water and standard mouse chow. Three days after STZ injection and immediately before MI/R studies, the urine glucose was assessed with Glucostix (Diastix, Bayer, Elkhart, Ind.). Mice with urine glucose>500 mg/dl in both tests were presumed to be diabetic. […]
(§2) Hearts were excised and fixed in 10% formalin PBS at 4° C. overnight. […] Serum troponin I concentrations were measured as an index of myocardial cell death using a commercially available ELISA kit (Life Diagnostics, West Chester, Pa.)^26.

[2] = system: diabetic WT mice; experiment: Neutrophil infiltration into the myocardium following MI/R (Ly-6G staining, infrared imaging); conditions: diabetic WT mice treated with insulin; 15 min ischemia, 4 h reperfusion
Experimental: as §1, with “diabetic. A group of STZ-injected mice was intensively treated with Lantus insulin (Sanofi-Aventis, Bridgewater, N.J.) to rule out any potentially cardiotoxic effects of STZ. Dependent on the individual daily urine glucose, 2-6 IU of insulin was injected (i.p.) daily.” for “diabetic.”

[3] = system: diabetic WT mice; experiment: Heart/body weight ratio after 2 weeks of diabetes; conditions: STZ-diabetic WT mice, insulin-treated, no MI/R
Experimental: as §1, §2

[4] = system: diabetic WT mice; experiment: Cardiac progenitor cell (CPC) numbers in heart sections (SCF R/c-kit staining); conditions: diabetic WT mice treated with insulin, two weeks of diabetes
Experimental: as §1, with “diabetic. A group of STZ-injected mice was intensively treated with Lantus insulin (Sanofi-Aventis, Bridgewater, N.J.) to rule out any potentially cardiotoxic effects of STZ. Dependent on the individual daily urine glucose, 2-6 IU of insulin was injected (i.p.) daily.” for “diabetic.”

[5] = system: diabetic WT mice; experiment: Left ventricular long and short axis area measurements by echocardiography before MI/R; conditions: STZ-diabetic WT mice, insulin 2-6 IU i.p. daily for 2 weeks
Experimental: as §1, with “Mice were made diabetic by a single injection of freshly prepared streptozotocin (STZ) solution (200 mg/kg body weight in citrate saline, pH 4.2, i.p., ALEXIS, Lausen, Switzerland)^23. The mice were housed in cages of four mice each and had unlimited access to water and standard mouse chow.” left out, “Ind.).” for “Ind.). Mice with urine glucose>500 mg/dl in both tests were presumed to be diabetic.”
(§3) Echocardiography was performed after mice had underwent experimental MI/R as described above. It has been shown that in the mouse model of MI/R, myocardial damage via infarct analysis is directly correlated with loss of function as measured by echocardiography^2. […] Ejection fraction (EF) was calculated both via left ventricular M-mode measurements and via long axis length and short axis area measurements of the left ventricle (LV)^24,25. […] In some animals, long axis and short axis area measurements of the LV were assessed prior to MI/R to assess myocardial dimensions under nonischemic conditions.

[6] = system: diabetic WT mice; experiment: Left ventricular ejection fraction by echocardiography after MI/R (15 min ischemia, 4 h reperfusion); conditions: STZ-diabetic WT mice, insulin 2-6 IU i.p. daily for 2 weeks, vs non-treated diabetic WT mice
Experimental: as §1, with “Mice were made diabetic by a single injection of freshly prepared streptozotocin (STZ) solution (200 mg/kg body weight in citrate saline, pH 4.2, i.p., ALEXIS, Lausen, Switzerland)^23. The mice were housed in cages of four mice each and had unlimited access to water and standard mouse chow.” left out, “Ind.).” for “Ind.). Mice with urine glucose>500 mg/dl in both tests were presumed to be diabetic.”
as §3

What does the source list for insulin?
serum troponin I concentrations after MI/R [1]: significantly reduced; inflammatory response (neutrophil infiltration into cardiac tissue) after MI/R [2]: attenuated the inflammatory response; diabetic cardiomyopathy / hypertrophic remodeling by heart/body weight ratios [3]: protected diabetic WT mice from diabetic cardiomyopathy; loss of cardiac progenitor cells (CPC) in diabetes [4]: reversed this effect; diabetic cardiomyopathy as measured by long and short axis measurements via echocardiography [5]: protected diabetic WT mice from diabetic cardiomyopathy; cardiac function (ejection fraction) following MI/R [6]: prevented loss of cardiac function following MI/R
